“Also recorded” adds a separate entry of the source.
How the values were obtained:
NK cells [1] = test: cells; format: cell-based; conditions: Homo sapiens, 72 h; N=3; read-out: EC50 of YFP expression in NK cells
TBK1/IKKε = conditions: Ref. 20; cited from earlier work
NK cells [2] = test: NK cell immunophenotyping by flow cytometry with and without inhibitor; format: cell-based, Human; conditions: 2 μM for 24 hours, then 48 hours fresh media; N=3; paired two-tailed t-test treated vs untreated
Method: FIGS. 4A-4B show representative data relating to NK cell phenotype with and without treatment with a representative disclosed compound, MRT67307. Briefly, NK cells were treated with and without 2μMMRT67307 for 24 hours. Media was removed and replaced with fresh complete media and cells incubated for another 48 hours. Cells were immunophenotyped via flow cytometry. NK cells were identified as efluor455UV negative, CD3 negative, and CD56 positive.
250,000 NK cells were collected and washed twice in DPBS. Surface HER2-CAR detection was determined via immunolabeling with anti-F (ab′) 2-AF647 (109-606-006, Jackson Labs, Bar Harbor, ME, USA; 1:100), CD19-CAR was detected with PE conjugated recombinant human CD19 protein (3309HP, Creative Biomart, Shirley, NY, USA; 1:100), or YFP were utilized for detection on a BD FACS Lyric machine and analyzed with FlowJo v10 (BD). Immunophenotyping was performed on a BD Symphony flow cytometer. Antibodies used are delineated in below in Table 1.

In the case of `O=C(NCCCNc1nc(Nc2cccc(CN3CCOCC3)c2)ncc1C1CC1)C1CCC1` [MRT67307, N-[3-[[5-cyclopropyl-2-[3-(morpholin-4-ylmethyl)anilino]pyrimidin-4-yl]amino]propyl]cyclobutanecarboxamide], the EC50 (NK cells [1]) is listed as 1.1 µM, the “specificity for TBK1/IKKε” value (TBK1/IKKε) is listed as “more specific for TBK1/IKKε than BX-795” and the “effect on NK cell phenotype” value (NK cells [2]) is listed as “no effect; also recorded: No parameter was significantly different”.

For `O=C(NCCCNc1nc(Nc2cccc(NC(=O)N3CCCC3)c2)ncc1I)c1cccs1` [BX-795], the EC50 (NK cells [1]) was 5 µM.

— patent publication US20250283110A1, “METHODS AND COMPOSITIONS FOR TRANSDUCTION OF NK CELLS” (ST. JUDE CHILDREN'S RESEARCH HOSPITAL, INC., priority 2021, published 2025)
